According to paper PMC4200789, “Design, Synthesis and Biological Evaluation of Sulfamide and Triazole Benzodiazepines as Novel p53-MDM2 Inhibitors” (International Journal of Molecular Sciences, 2014):
Like-named read-outs stand apart in the source and are kept apart here.

Experiments:
[1] = molecular target: MDM2 binding domain (1–118) / PMDM6-F peptide (p53-MDM2) (Homo sapiens, UniProt Q00987); assay: fluorescence polarization (FP) p53-MDM2 binding assay
Experimental: A well-established fluorescence polarization (FP) binding assay was performed to measure the inhibitory activity (Ki) of designed compounds. […] The two phenyl rings of (R)-7c were located in the Phe19 and Trp23 pockets respectively and the propargyl group was partly inserted into the Leu26 pocket.
The dose-dependent binding experiments were carried out with serial dilution in DMSO of compounds. […] The Ki values were determined from a plot using nonlinear least-squares analysis. And curve fitting was performed using GraphPad Prism software.

A549 (wild-type p53) = assay: in vitro antitumor activity, MTT; assay type: cell-based; settings: Homo sapiens, read-out: IC50 A549 (wt-p53)
Experimental: (§1) To investigate the in vitro antiproliferative activity of the designed p53-MDM2 inhibitors, four human tumor cell lines, namely U-2 OS (wild-type p53), A549 (wild-type p53), Saos-2 (p53 null), and NCI-H1299 (p53 null), were chosen for assaying.
(§2) The cellular growth inhibitory activity was determined using four human cancer cell lines [U-2 OS (wild-type p53), A549 (wild-type p53), Saos-2 (p53 null), and NCI-H1299 (p53 null)]. 5–6 × 10^4 cells per well were plated in 96-well plates. After culturing for 24 h, test compounds were added onto triplicate wells with different concentrations and 0.1% DMSO for control. After 72 h of incubation, 20 μL of MTT (3-[4,5-dimethylthiazol-2-yl]-2,5-diphenyltetrazoliumbromide) solution (5 mg/mL) was added to each well, and after the samples were shaken for 1min the plate was incubated further for 4 h at 37 °C. […] were dissolved with 100 μL of DMSO. The absorbance (OD) was quantitated with microplate using Biotek Synergy H2 at 570 nm (BioTek, Winooski, VT, USA). Wells containing no drugs were used as blanks.

NCI-H1299 (p53 null) = assay: in vitro antitumor activity, MTT; assay type: cell-based; settings: Homo sapiens, read-out: IC50 NCI-H1299 (p53 null)
Experimental: as §1, §2

Saos-2 (p53 null) = assay: in vitro antitumor activity, MTT; assay type: cell-based; settings: Homo sapiens, read-out: IC50 Saos-2 (p53 null)
Experimental: as §1, §2

U-2 OS (wild-type p53) = assay: in vitro antitumor activity, MTT; assay type: cell-based, human; settings: for IC50: Homo sapiens, U2OS, 72 h, read-out: IC50 U-2 OS (wt-p53)
Experimental: as §1, §2

[2] = test system: four human tumor cell lines (U-2 OS, A549, Saos-2, NCI-H1299); assay: in vitro antitumor activity, MTT, four cell lines together; assay type: cell-based
Experimental: as §1, §2

[3] = parameters: method as in PMID 16630722, PMID 16600594, PMID 16290148; settings: cited from earlier work
[4] = FP binding assay, MDM2 (1–118) 10 nM, PMDM6-F 10 nM, read-out: Ki

Chain of MDM2 binding domain (1–118) / PMDM6-F peptide (p53-MDM2) (Q00987 1-118): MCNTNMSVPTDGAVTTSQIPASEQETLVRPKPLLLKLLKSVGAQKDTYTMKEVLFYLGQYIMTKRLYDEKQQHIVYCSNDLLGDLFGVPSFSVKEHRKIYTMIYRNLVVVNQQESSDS

Structure (SMILES) | Ki [1, 4] | IC50 (A549 (wild-type p53); A549, MTT, 72 h) | IC50 (NCI-H1299 (p53 null); NCI-H1299, MTT, 72 h) | IC50 (Saos-2 (p53 null); SAOS-2, MTT, 72 h) | IC50 (U-2 OS (wild-type p53); MTT) | IC50 (U-2 OS (wild-type p53)) | other results
C#CCN1C(=O)C(c2ccc(Cl)cc2)N(CC#C)S(=O)(=O)c2ccccc21 (stereo not drawn) [Compound 7a, 3-(4-Chlorophenyl)-2,5-di(prop-2-yn-1-yl)-2,3-dihydrobenzo[f][1,2,5]thiadiazepin-4(5H)-one 1,1-dioxide] | 0.43 µM | > 100 µM | > 100 µM | > 100 µM | > 100 µM |  | 
C#CCN1C(c2ccc(Cl)cc2)C(=O)N(C=C=C)c2ccccc2S1(=O)=O (stereo not drawn) [Compound 7b, 3-(4-Chlorophenyl)-2-(prop-2-yn-1-yl)-5-(propa-1,2-dien-1-yl)-2,3-dihydrobenzo[f][1,2,5]thiadiazepin-4(5H)-one 1,1-dioxide] | 0.36 µM | > 100 µM | > 100 µM | > 100 µM | > 100 µM |  | 
C#CCN1C(c2ccc(Cl)cc2)C(=O)Nc2ccccc2S1(=O)=O (stereo not drawn) [Compound 7c, 3-(4-Chlorophenyl)-2-(prop-2-yn-1-yl)-2,3-dihydrobenzo[f][1,2,5]thiadiazepin-4(5H)-one 1,1-dioxide] | 0.26 µM | > 100 µM | > 100 µM | > 100 µM | > 100 µM |  | 
N#CCN1C(c2ccc(Cl)cc2)C(=O)Nc2ccccc2S1(=O)=O (stereo not drawn) [Compound 7d, 2-(3-(4-Chlorophenyl)-1,1-dioxido-4-oxo-4,5-dihydrobenzo[f][1,2,5]thiadiazepin-2(3H)-yl)acetonitrile] | > 100 µM | 92.3 µM | > 100 µM | > 100 µM | > 100 µM |  | 
O=C1Nc2ccccc2S(=O)(=O)N(Cc2cccc(F)c2)C1c1ccc(Cl)cc1 (stereo not drawn) [Compound 7e, 3-(4-Chlorophenyl)-2-(3-fluorobenzyl)-2,3-dihydrobenzo[f][1,2,5]thiadiazepin-4(5H)-one 1,1-dioxide] | > 100 µM | > 100 µM | > 100 µM | > 100 µM | 90.5 µM |  | 
O=C1Nc2ccccc2S(=O)(=O)N(Cc2c(F)cccc2F)C1c1ccc(Cl)cc1 (stereo not drawn) [Compound 7f, 3-(4-Chlorophenyl)-2-(2,6-difluorobenzyl)-2,3-dihydrobenzo[f][1,2,5]thiadiazepin-4(5H)-one 1,1-dioxide] | 78 µM | > 100 µM | > 100 µM | > 100 µM | > 100 µM |  | 
O=C1Nc2ccccc2S(=O)(=O)N(Cc2ccccc2)C1c1ccc(Cl)cc1 (stereo not drawn) [Compound 7g, 2-Benzyl-3-(4-chlorophenyl)-2,3-dihydrobenzo[f][1,2,5]thiadiazepin-4(5H)-one 1,1-dioxide] | 8.14 µM | > 100 µM | > 100 µM | > 100 µM | > 100 µM |  | 
O=C1Nc2ccccc2S(=O)(=O)N=C1c1ccc(Cl)cc1 [Compound 8, 3-(4-Chlorophenyl)benzo[f][1,2,5]thiadiazepin-4(5H)-one 1,1-dioxide] | 11.9 µM | > 100 µM | > 100 µM | > 100 µM | > 100 µM |  | p53-MDM2 inhibitory activity (in words) ([1]; FP binding assay): dramatic decrease of the inhibitory activity
O=C1Nc2ccc(Cl)cc2C(c2ccccc2)=NC1c1ccc(Cl)cc1 (stereo not drawn) [Compound 13, 7-Chloro-3-(4-chlorophenyl)-5-phenyl-1H-benzo[e][1,4]diazepin-2(3H)-one] |  |  |  |  |  | 3.12 µM | Ki [1]: 0.2 µM; IC50 (A549 (wild-type p53); A549, 72 h): 9.16 µM; IC50 (NCI-H1299 (p53 null); NCI-H1299, 72 h): 6.11 µM; IC50 (Saos-2 (p53 null); SAOS-2, 72 h): 3.01 µM
S=C1Nc2ccc(Cl)cc2C(c2ccccc2)=NC1c1ccc(Cl)cc1 (stereo not drawn) [Compound 14, 7-Chloro-3-(4-chlorophenyl)-5-phenyl-1H-benzo[e][1,4]diazepine-2(3H)-thione] |  |  |  |  |  | 5.31 µM | Ki [1]: 8.76 µM; IC50 (A549 (wild-type p53); A549, 72 h): 24.1 µM; IC50 (NCI-H1299 (p53 null); NCI-H1299, 72 h): 15.6 µM; IC50 (Saos-2 (p53 null); SAOS-2, 72 h): 3.67 µM
Clc1ccc(C2N=C(c3ccccc3)c3cc(Cl)ccc3-n3cnnc32)cc1 (stereo not drawn) [Compound 16, 8-Chloro-4-(4-chlorophenyl)-6-phenyl-4H-benzo[f][1,2,4]] |  |  |  |  |  | 4.17 µM | Ki [1]: 1.22 µM; IC50 (A549 (wild-type p53); A549, 72 h): 7.62 µM; IC50 (NCI-H1299 (p53 null); NCI-H1299, 72 h): 5.5 µM; IC50 (Saos-2 (p53 null); SAOS-2, 72 h): 3.55 µM; antiproliferative activity against U-2 OS relative to nutlin-3 (U-2 OS (wild-type p53); better than nutlin-3): about 4 fold
Clc1ccc(C2NC(c3ccccc3)c3cc(Cl)ccc3-n3cnnc32)cc1 (stereo not drawn) [Compound 17, 8-Chloro-4-(4-chlorophenyl)-6-phenyl-5,6-dihydro-4H-benzo[f][1,2,4]triazolo[4,3-a][1,4]diazepine] |  |  |  |  |  | 34 µM | Ki [1]: 2.8 µM; IC50 (A549 (wild-type p53); A549, 72 h): 26.8 µM; IC50 (NCI-H1299 (p53 null); NCI-H1299, 72 h): 34.6 µM; IC50 (Saos-2 (p53 null); SAOS-2, 72 h): 24.8 µM; in vitro antitumor activity (in words) [2]: poor activity
COc1ccc(C2=N[C@@H](c3ccc(Cl)cc3)[C@@H](c3ccc(Cl)cc3)N2C(=O)N2CCNC(=O)C2)c(OC(C)C)c1 [Nutlin-3, reference compound] |  |  |  |  |  | 16.3 µM | 
O=C(O)[C@H](c1ccc(Cl)cc1)N1C(=O)c2cc(I)ccc2NC(=O)[C@@H]1c1ccc(Cl)cc1 [TDP222669] |  |  |  |  |  |  | bioavailability [3]: limited bioavailability; in vivo clearance [3]: rapid in vivo clearance
